Key:
PDE4 (cAMP-specific) = assay: Inhibition of PDE isoenzymes: PDE4; type: biochemical; settings: cytosol of human polymorphonuclear leukocytes (PMNL), cAMP as substrate, motapizone 1 μM present
PDE3 (cGMP-inhibited) = target: T1, PDE3 (cGMP-inhibited) (Homo sapiens, UniProt Q14432); assay: Inhibition of PDE isoenzymes: PDE3; type: biochemical; settings: homogenates of human blood platelets, cAMP as substrate; read-out: PDE3 [-loglC50,mol/l] (converted)
T1 construct: were investigated in homogenates of human blood platelets; from tissue; host or cells: homogenates of human blood platelets
T1 sequence (Q14432 whole entry): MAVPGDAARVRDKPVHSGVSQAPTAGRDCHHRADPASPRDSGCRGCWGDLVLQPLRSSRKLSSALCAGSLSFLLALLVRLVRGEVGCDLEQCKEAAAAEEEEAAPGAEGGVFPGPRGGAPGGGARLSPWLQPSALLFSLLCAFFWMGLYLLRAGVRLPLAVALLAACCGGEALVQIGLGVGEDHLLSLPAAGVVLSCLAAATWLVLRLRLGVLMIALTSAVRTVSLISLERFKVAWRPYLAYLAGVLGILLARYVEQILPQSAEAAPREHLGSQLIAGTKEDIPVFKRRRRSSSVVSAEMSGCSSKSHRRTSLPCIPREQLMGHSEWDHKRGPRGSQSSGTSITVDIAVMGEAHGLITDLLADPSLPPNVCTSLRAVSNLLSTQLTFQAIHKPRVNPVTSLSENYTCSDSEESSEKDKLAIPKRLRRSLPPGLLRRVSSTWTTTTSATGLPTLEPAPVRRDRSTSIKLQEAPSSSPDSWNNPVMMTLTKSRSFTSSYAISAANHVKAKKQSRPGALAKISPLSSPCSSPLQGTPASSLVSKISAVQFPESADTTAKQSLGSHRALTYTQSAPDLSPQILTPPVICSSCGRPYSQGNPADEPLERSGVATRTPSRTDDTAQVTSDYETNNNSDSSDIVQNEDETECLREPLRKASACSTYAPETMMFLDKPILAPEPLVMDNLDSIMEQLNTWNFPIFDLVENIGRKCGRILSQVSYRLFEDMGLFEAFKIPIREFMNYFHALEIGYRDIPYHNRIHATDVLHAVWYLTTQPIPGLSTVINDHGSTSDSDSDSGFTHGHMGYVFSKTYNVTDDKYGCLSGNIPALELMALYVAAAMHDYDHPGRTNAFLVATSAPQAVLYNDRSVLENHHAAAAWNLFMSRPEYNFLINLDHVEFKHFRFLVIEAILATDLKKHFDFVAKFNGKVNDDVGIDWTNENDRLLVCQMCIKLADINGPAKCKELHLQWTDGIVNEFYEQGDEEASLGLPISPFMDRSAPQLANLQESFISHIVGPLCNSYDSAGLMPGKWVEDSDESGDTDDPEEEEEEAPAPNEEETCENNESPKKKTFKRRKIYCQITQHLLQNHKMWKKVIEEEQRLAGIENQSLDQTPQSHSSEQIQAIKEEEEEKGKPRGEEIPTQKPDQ
Protocol: The PDE activity was determined according to Thompson et al. (1) with some modifications (2). The test samples contained 40 mM tris HCl (pH 7.4), 5 mM MgCl2, 0.5 μM cAMP or cGMP, [^3 H] cAMP or [3H]CGMP (about 50,000 cpm/sample), the PDE isoenzyme-specific additions described in greater detail below, the indicated concentrations of inhibitor and an aliquot of the enzyme solution in a total sample volume of 200 μl. […] After preincubation at 37° C. for 5 minutes, the reaction was started by addition of the substrate (cAMP or cGMP). The samples were incubated at 37° C. for a further 15 min. The reaction was terminated by addition of 50 μl of 0.2 N HCl. After cooling on ice for 10 minutes and addition of 25 μg of 5'-nucleotidase (snake venom from Crotalus atrox), the mixture was again incubated at 37° C. for 10 min and the samples were then applied to QAE Sephadex A-25 columns. The columns were eluted with 2 ml of 30 mM ammonium formate (pH 6.0). The radioactivity of the eluate was measured and corrected by the corresponding blank values. The proportion of hydrolysed nucleotide in no case exceeded 20% of the original substrate concentration.
PDE3 (cGMP-inhibited) and PDE5 (cGMP-specific) were investigated in homogenates of human blood platelets [Schudt et al. (4)] using cAMP or cGMP as a substrate.
The IC50 values were determined from the concentration-inhibition curves by nonlinear regression using the GraphPad InPlot™ program (GraphPad Software Inc., […], USA).

SMILES	PDE4 [-loglC50,mol/l] (PDE4 (cAMP-specific))	IC50 (PDE3 (cGMP-inhibited)) [µM]
CCCCN(CCCC)C(=O)c1ccc(C2=N[C@@H]3CC[N+](C)([O-])C[C@@H]3c3cc(OCCC)c(OC)cc32)cc1 (relative stereo) [Compound 3, cis-8-methoxy-2-methyl-9-propoxy-6-(4-dibutylaminocarbonylphenyl)-1 ,2,3,4,4a,10b-hexahydrobenzo[c][1,6]naphthyridine N-2-oxide]	7.53	2.09
CCOc1cc2c(cc1OC)C(c1ccc(C(=O)N(C(C)C)C(C)C)cc1)=N[C@@H]1CC[N+](C)([O-])C[C@H]21 (single isomer, unassigned) [Compound 1, cis-9-ethoxy-8-methoxy-2-methyl-6-(4-diisopropylaminocarbonylphenyl)-1,2,3,4,4a,10b-hexahydrobenzo[c][1,6]naphthyridine N-2-oxide]	7.20	0.776
CCCCN(CCCC)C(=O)c1ccc(C2=N[C@@H]3CC[N+](C)([O-])C[C@@H]3c3cc(OCC)c(OC)cc32)cc1 (relative stereo) [Compound 2, cis-9-ethoxy-2-methyl-8-methoxy-6-(4-dibutylaminocarbonylphenyl)-1 ,2,3,4,4a,10b-hexahydrobenzo[c][1,6]naphthyridine N-2-oxide]	7.98	1.07

— patent US6306869A, “N-oxides” (Byk Gulden Lomberg Chemische Febrik GmbH, priority 1998, dated 2001)
